Reference: ChEMBL document CHEMBL1240392 (Antimicrob Agents Chemother, 2010)
Converted amounts (≈) assume the structure as drawn. The source made the active and inactive calls. The calls are words filed in the database; no cut-off is given here.

Legend:
[1] = system: Mus musculus; assay: AUC in C57BL/6 mouse pneumonia model at 20 mg/kg, im; format: ADME, organism-based; set-up: dose 20 mg/kg, route intramuscular; settings: in vivo
[2] = system: Mus musculus; assay: Cmax in C57BL/6 mouse pneumonia model at 20 mg/kg, im; format: ADME, organism-based; set-up: dose 20 mg/kg, route intramuscular; settings: in vivo
[3] = species: Homo sapiens; assay: AUC in human; format: ADME, organism-based, Plasma; settings: in vivo
[4] = system: Oryctolagus cuniculus; assay: Cmax in New Zealand rabbit meningitis model at 12 mg/kg, im; format: ADME, organism-based; set-up: dose 12 mg/kg, route intramuscular; settings: in vivo
[5] = system: Oryctolagus cuniculus; assay: Half life in New Zealand rabbit meningitis model at 12 mg/kg, im; format: ADME, organism-based; set-up: dose 12 mg/kg, route intramuscular; settings: in vivo
[6] = system: Mus musculus; assay: Half life in C57BL/6 mouse pneumonia model at 20 mg/kg, im; format: ADME, organism-based; set-up: dose 20 mg/kg, route intramuscular; settings: in vivo
[7] = system: Oryctolagus cuniculus; assay: AUC in New Zealand rabbit meningitis model at 12 mg/kg, im; format: ADME, organism-based; set-up: dose 12 mg/kg, route intramuscular; settings: in vivo
[8] = T>MIC in Acinetobacter baumannii infected C57BL/6 mouse pneumonia model at 25 mg/kg, iv; format: functional
[9] = system: Acinetobacter baumannii; assay: Antimicrobial activity against Acinetobacter baumannii 940; format: functional
[10] = system: Acinetobacter baumannii; assay: Antimicrobial activity against Acinetobacter baumannii infected in C57BL/6 mouse model assessed as reduction in bacterial count in blood at total dose of 100 mg/kg/day, ip administered as four divided doses after 72 hrs; format: functional; set-up: scale not given: the % may be the effect or the level left; settings: route intraperitoneal
[11] = system: Acinetobacter baumannii; assay: Antimicrobial activity against Acinetobacter baumannii 1417 after 24 hrs by time-kill assay; format: functional, organism-based
[12] = system: Acinetobacter baumannii; assay: Antibacterial activity against Acinetobacter baumannii 1327 infected in New Zealand rabbit meningitis model assessed as reduction in bacterial count in CSF at 25 mg/kg, iv measured after 4 hrs of last dose (RVb = 5.2); format: functional
[13] = T>MIC in Acinetobacter baumannii infected New Zealand rabbit meningitis model at 25 mg/kg, iv; format: functional
[14] = Cmax in C57BL/6 mouse pneumonia model at 25 mg/kg, ip; format: ADME, organism-based; set-up: dose 25 mg/kg, route intraperitoneal; settings: in vivo
[15] = system: Acinetobacter baumannii; assay: Antibacterial activity against Acinetobacter baumannii infected in C57BL/6 mouse model assessed as survival rate at total dose of 100 mg/kg/day, ip administered as four divided doses measured after 72 hrs post last dose; format: functional; settings: route intraperitoneal
[16] = system: Acinetobacter baumannii; assay: Antimicrobial activity against Acinetobacter baumannii 506 after 24 hrs by time-kill assay; format: functional, organism-based
[17] = system: Oryctolagus cuniculus; assay: Antiinflammatory activity in Acinetobacter baumannii 1327-infected New Zealand rabbit meningitis model assessed as in WBC count at 25 mg/kg, iv after 6 hrs (RVb = 1 cells/ul); format: functional
[18] = system: Acinetobacter baumannii; assay: Antimicrobial activity against Acinetobacter baumannii infected in C57BL/6 mouse model assessed as reduction in bacterial count per gram of lung at total dose of 100 mg/kg/day, ip administered as four divided doses after 72 hrs (RVb = 10.6+/-0.27); format: functional, organism-based
[19] = system: Acinetobacter baumannii; assay: Antimicrobial activity against Acinetobacter baumannii 940 after 24 hrs by time-kill assay; format: functional, organism-based
[20] = system: Acinetobacter baumannii; assay: Antimicrobial activity against Acinetobacter baumannii 1417; format: functional
[21] = system: Acinetobacter baumannii; assay: Antimicrobial activity against Acinetobacter baumannii 1327; format: functional
[22] = system: Acinetobacter baumannii; assay: Antimicrobial activity against Acinetobacter baumannii 506; format: functional
[23] = system: Acinetobacter baumannii; assay: Antibacterial activity against Acinetobacter baumannii 1327 infected in New Zealand rabbit meningitis model assessed as reduction in bacterial count in CSF at 25 mg/kg, iv measured after 2 hrs of last dose (RVb = 5.1); format: functional
[24] = system: Acinetobacter baumannii; assay: Antimicrobial activity against Acinetobacter baumannii 1327 after 24 hrs by time-kill assay; format: functional, organism-based
[25] = system: Acinetobacter baumannii; assay: Antibacterial activity against Acinetobacter baumannii 1327 infected in New Zealand rabbit meningitis model assessed as reduction in bacterial count in CSF at 25 mg/kg, iv measured after 6 hrs of last dose (RVb = 5.5); format: functional
[26] = AUC in C57BL/6 mouse pneumonia model at 25 mg/kg, ip; format: ADME, organism-based; set-up: dose 25 mg/kg, route intraperitoneal; settings: in vivo
[27] = Cmax in New Zealand rabbit meningitis model at 25 mg/kg, iv; format: ADME, organism-based, Oryctolagus cuniculus; set-up: dose 25 mg/kg, route intravenous; settings: in vivo
[28] = AUC in New Zealand rabbit meningitis model at 25 mg/kg, iv; format: ADME, organism-based, Oryctolagus cuniculus; set-up: dose 25 mg/kg, route intravenous; settings: in vivo
[29] = system: Acinetobacter baumannii; assay: Antibacterial activity against Acinetobacter baumannii 1327 infected in New Zealand rabbit meningitis model assessed as reduction in bacterial count in CSF at 25 mg/kg, im measured after 6 hrs of last dose (RVb = 5.5); format: functional, organism-based; set-up: dose 25 mg/kg
[30] = system: Acinetobacter baumannii; assay: Antibacterial activity against Acinetobacter baumannii 1327 infected in New Zealand rabbit meningitis model assessed as reduction in bacterial count in CSF at 25 mg/kg, im measured after 4 hrs of last dose (RVb = 5.2); format: functional, organism-based; set-up: dose 25 mg/kg
[31] = Ratio of Cmax to MIC for Acinetobacter baumannii 1327 in pharmacokinetic-pharmacodynamic C57BL/6 mouse pneumonia model at 20 mg/kg, im; format: functional, organism-based; set-up: dose 20 mg/kg
[32] = system: Acinetobacter baumannii; assay: Antimicrobial activity against Acinetobacter baumannii infected in C57BL/6 mouse model assessed as reduction in bacterial count in blood at total dose of 60 mg/kg/day, im administered as four divided doses after 72 hrs; format: functional, organism-based; set-up: scale not given: the % may be the effect or the level left
[33] = T>MIC in Acinetobacter baumannii infected C57BL/6 mouse pneumonia model at 20 mg/kg, im; format: functional, organism-based; set-up: dose 20 mg/kg
[34] = system: Acinetobacter baumannii; assay: Antimicrobial activity against Acinetobacter baumannii infected in C57BL/6 mouse model assessed as reduction in bacterial count per gram of lung at total dose of 60 mg/kg/day, im administered as four divided doses after 72 hrs (RVb = 10.6+/-0.27); format: functional, organism-based
[35] = T>MIC in Acinetobacter baumannii infected New Zealand rabbit meningitis model at 12 mg/kg, im; format: functional, organism-based; set-up: dose 12 mg/kg
[36] = Ratio of AUC to MIC for Acinetobacter baumannii 1327 in pharmacokinetic-pharmacodynamic New Zealand rabbit meningitis model at 12 mg/kg, im; format: functional, organism-based; set-up: dose 12 mg/kg
[37] = Ratio of AUC to MIC for Acinetobacter baumannii 1327 in pharmacokinetic-pharmacodynamic C57BL/6 mouse pneumonia model at 12 mg/kg, im; format: functional, organism-based; set-up: dose 12 mg/kg
[38] = Ratio of Cmax to MIC for Acinetobacter baumannii 1327 in pharmacokinetic-pharmacodynamic New Zealand rabbit meningitis model at 12 mg/kg, im; format: functional, organism-based; set-up: dose 12 mg/kg
[39] = system: Acinetobacter baumannii; assay: Antibacterial activity against Acinetobacter baumannii 1327 infected in New Zealand rabbit meningitis model assessed as reduction in bacterial count in CSF at 25 mg/kg, im measured after 2 hrs of last dose (RVb = […]); format: functional, organism-based; set-up: dose 25 mg/kg
[40] = system: Oryctolagus cuniculus; assay: Antiinflammatory activity in Acinetobacter baumannii 1327-infected New Zealand rabbit meningitis model assessed as in WBC count at 12 mg/kg, im after 6 hrs (RVb = 1 cells/ul); format: functional, organism-based; set-up: dose 12 mg/kg
[41] = system: Acinetobacter baumannii; assay: Antimicrobial activity against Acinetobacter baumannii; format: functional, organism-based
[42] = system: Acinetobacter baumannii; assay: Antibacterial activity against Acinetobacter baumannii infected in C57BL/6 mouse model assessed as survival rate at total dose of 60 mg/kg/day, im administered as four divided doses measured after 72 hrs post last dose relative to control; format: functional, organism-based
[43] = system: Oryctolagus cuniculus; assay: Antiinflammatory activity in Acinetobacter baumannii 1327-infected New Zealand rabbit meningitis model assessed as brain edema at 12 mg/kg, im; format: functional, organism-based; set-up: dose 12 mg/kg

**Q.** Which AUC [1] does the source give for COLISTIN [listing 1 of 2 here] here?
**A.** 26420 ng·h/mL

**Q.** And the Cmax [2]?
**A.** 27390 ng/mL

**Q.** And the AUC [3]?
**A.** 23430 ng·h/mL

**Q.** And the Cmax [4]?
**A.** 9000 ng/mL

**Q.** What about the t1/2 [5] of the same compound?
**A.** 3.08 h

**Q.** What about the t1/2 [6] of the same compound?
**A.** 0.54 h

**Q.** And the AUC [7]?
**A.** 41720 ng·h/mL

**Q.** Which “T>MIC” value [8] does the source give for CO[C@H]1/C=C/O[C@@]2(C)Oc3c(C)c(O)c4c(O)c(c(/C=N/N5CCN(C)CC5)c(O)c4c3C2=O)NC(=O)/C(C)=C\C=C\[C@H](C)[C@H](O)[C@@H](C)[C@@H](O)[C@@H](C)[C@H](OC(C)=O)[C@@H]1C [RIFAMPIN] here?
**A.** 7.5 h

**Q.** And the MBC [9]?
**A.** 4 µg/mL (≈ 4.86 µM)

**Q.** What about the MIC [9] of the same compound?
**A.** 4 µg/mL (≈ 4.86 µM)

**Q.** What about the Activity [10] of the same compound?
**A.** 78.6%

**Q.** What about the Activity [11] of the same compound?
**A.** Active

**Q.** And the Activity [12]?
**A.** 4.5 log10CFU/ml

**Q.** And the “T>MIC” value [13]?
**A.** 6.54 h

**Q.** What about the Cmax [14] of the same compound?
**A.** 15800 ng/mL

**Q.** What about the survival at 100 mg/kg/day [15] of the same compound?
**A.** 71.4%

**Q.** What about the Activity [16] of the same compound?
**A.** Active

**Q.** And the Activity [17]?
**A.** 8.2%

**Q.** And the Activity [18]?
**A.** Active

**Q.** What about the Activity [19] of the same compound?
**A.** Active

**Q.** What about the MBC [20] of the same compound?
**A.** 8 µg/mL (≈ 9.72 µM)

**Q.** And the MIC [20]?
**A.** 8 µg/mL (≈ 9.72 µM)

**Q.** And the MBC [21]?
**A.** 8 µg/mL (≈ 9.72 µM)

**Q.** And the MIC [21]?
**A.** 4 µg/mL (≈ 4.86 µM)

**Q.** What about the MBC [22] of the same compound?
**A.** 4 µg/mL (≈ 4.86 µM)

**Q.** And the MIC [22]?
**A.** 4 µg/mL (≈ 4.86 µM)

**Q.** What about the Activity [23] of the same compound?
**A.** 5.1 log10CFU/ml

**Q.** And the Activity [24]?
**A.** Active

**Q.** And the Activity [25]?
**A.** 3.5 log10CFU/ml

**Q.** And the AUC [26]?
**A.** 24800 ng·h/mL

**Q.** And the Cmax [27]?
**A.** 16600 ng/mL

**Q.** What about the AUC [28] of the same compound?
**A.** 40300 ng·h/mL

**Q.** Which results are given for COLISTIN [listing 2 of 2 here]?
**A.** Activity [29]: 4.3 log10CFU/ml; Activity [30]: 4.7 log10CFU/ml; MBC [9]: 8 µg/mL; MIC [9]: 0.5 µg/mL; Activity [11]: Active; Ratio [31]: 54.8; Activity [16]: Active; Activity [32]: 73.3%; T>MIC [33]: 3.72 h; Activity [34]: Active; T>MIC [35]: 11.4 h; Activity [19]: Active; Ratio [36]: 83.4; MBC [20]: 1 µg/mL; MIC [20]: 0.5 µg/mL; MBC [21]: 2 µg/mL; MIC [21]: 0.5 µg/mL; Ratio [37]: 52.8; Ratio [38]: 18; MBC [22]: 2 µg/mL; MIC [22]: 0.5 µg/mL; Activity [24]: Active; Activity [39]: 5.2 log10CFU/ml; Activity [40]: 4%; MIC [41]: 0.5 µg/mL; Survival [42]: 40%; Activity [43]: 383 µL⁻¹
